Consider one molecule from article PMC8931317 (Proceedings of the National Academy of Sciences of the …, 2022).

Molecules are shown by their SMILES.

This assay deals with T1, YeiE (CsYeiE) (Cronobacter sakazakii, UniProt H9BVC9).
T1 sequence (H9BVC9 85-288): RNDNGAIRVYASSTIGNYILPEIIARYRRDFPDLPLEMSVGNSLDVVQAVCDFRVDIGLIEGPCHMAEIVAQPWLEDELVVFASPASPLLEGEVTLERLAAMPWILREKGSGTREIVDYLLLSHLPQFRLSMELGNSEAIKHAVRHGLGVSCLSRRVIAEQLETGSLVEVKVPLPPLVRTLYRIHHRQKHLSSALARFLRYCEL
Put plainly: ITC. It is filed as binding.

The molecule `O=S(O)O` [sulfite] gave a Kd of 1380 nM.

For orientation: Kd means the free concentration of one partner at which half of the binding sites on the other are occupied at equilibrium, for simple one-to-one binding.
